From ChEMBL document CHEMBL4732061, “Synthesis, binding, and functional properties of tetrahydroisoquinolino-2-alkyl phenones as selective σR/TMEM97 ligands” (Eur J Med Chem, 2021) come the findings set out here.

pIC50, pKi: −log10 of the molar value. Active and inactive are the calls of the source. The rule behind the calls is not given here.

A word on the pIC50: it is −log10 of the IC50, conventionally taken in molar units. Broadly, the pKi is the Ki on a negative log10 scale, so that one unit is a factor of ten.

Series [1] has as its system MCF7. The series can be described thus: Cytotoxicity against human MCF7 cells assessed as reduction in cell viability incubated for 24 hrs by CCK-8 assay. The series is classed as functional, cell-based. Conditions: for pIC50: Homo sapiens, MCF7, 24 h, read-out: IC50. On the technique in general: Tetrazolium dyes change colour on reduction, which living cells bring about.

For series [2], the system named is MCF-10A. The series can be described thus: Cytotoxicity against human MCF-10A cells assessed as reduction in cell viability incubated for 24 hrs by CCK-8 assay. The series is classed as cell-based. Conditions: for pIC50: Homo sapiens, MCF-10A, 24 h, read-out: IC50.
The target of series [3] is Sigma intracellular receptor 2 (Homo sapiens) (UniProt Q5BJF2). The series can be described thus: Antagonist activity at sigma 2 receptor in human MCF7 cells assessed as reduction in intracellular calcium release at 30 uM incubated for 3 hrs by Fluo-3 AM dye based confocal laser scanning microscopy. It counts as cell-based. To be noted: filed as antagonist.
Series [4] concerns the target T1, Sigma intracellular receptor 2 (Rattus norvegicus, UniProt Q5U3Y7).
T1 sequence (Q5U3Y7 whole entry): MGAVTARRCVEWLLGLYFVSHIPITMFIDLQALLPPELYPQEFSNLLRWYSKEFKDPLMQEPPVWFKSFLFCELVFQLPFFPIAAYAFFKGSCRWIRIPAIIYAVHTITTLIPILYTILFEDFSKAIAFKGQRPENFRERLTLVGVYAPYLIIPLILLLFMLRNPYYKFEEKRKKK
As to the kind of experiment: Displacement of [125I]-RHM-4 from sigma 2 receptor in rat liver membranes after 120 mins by microbeta scintillation counting method. The series is classed as cell membranes, Membrane. (In a radioligand displacement assay an active substance lowers the binding of a labelled ligand.)

The target in series [5] is Sigma non-opioid intracellular receptor 1 (Cavia porcellus, UniProt Q60492). The series can be described thus: Displacement of [3H](+)-pentazocine from sigma 1 receptor in guinea pig brain membranes after 120 mins by microbeta scintillation counting method. The series is classed as cell membranes, Membrane.
The test system of series [6] is MCF-10A. The series can be described thus: Cytotoxicity against human MCF-10A cells assessed as reduction in cell viability incubated for 48 hrs by CCK-8 assay. It counts as cell-based.
For series [7], the system named is MCF7. As to the kind of experiment: Cytotoxicity against human MCF7 cells assessed as reduction in cell viability incubated for 48 hrs by CCK-8 assay. The series is classed as functional, cell-based. Conditions: MCF7, 48 h.
Series [8] can be described thus: Selectivity ratio of Ki for displacement of [3H](+)-pentazocine from sigma 1 receptor in guinea pig brain membranes to Ki for displacement of [125I]-RHM-4 from sigma2 receptor in rat liver membranes. It counts as cell membranes.
The target of series [9] is Sigma intracellular receptor 2 (Homo sapiens) (UniProt Q5BJF2). As to the kind of experiment: Agonist activity at sigma 2 receptor in human MCF7 cells assessed as stimulation of intracellular calcium release at 10 uM incubated for 3 hrs by Fluo-3 AM dye based confocal laser scanning microscopy. The series is classed as cell-based. To be noted: filed as agonist. A general note: A change in cytosolic calcium serves as a functional read-out for many receptors and channels.

Series [10] concerns MCF-10A. As to the kind of experiment: Cytotoxicity against human MCF-10A cells assessed as reduction in cell viability incubated for 24 to 48 hrs by CCK-8 assay. It counts as cell-based.
The test system of series [11] is MCF7. As to the kind of experiment: Cytotoxicity against human MCF7 cells assessed as reduction in cell viability at 1 to 100 uM incubated for 24 to 48 hrs by CCK-8 assay. It counts as functional, cell-based. To be noted: dose 1-100 µM, time 24-48 hrs.
Series [12] deals with MCF-10A. The series can be described thus: Cytotoxicity against human MCF-10A cells assessed as reduction in cell viability at 1 to 100 uM incubated for 24 to 48 hrs by CCK-8 assay. The series is classed as cell-based. Conditions: dose lower 1 µM, time lower 24 hrs, dose upper 100 µM, time upper 48 hrs.
The test system of series [13] is MCF7. As to the kind of experiment: Cytotoxicity against human MCF7 cells assessed as reduction in cell viability incubated for 24 to 48 hrs by CCK-8 assay. The series is classed as functional, cell-based.
For series [14], the system named is KYSE-140. As to the kind of experiment: Cytotoxicity against human KYSE-140 cells assessed as reduction in cell viability incubated for 24 to 48 hrs in presence of cisplatin by CCK-8 assay. To be noted: time 24-48 hrs. The series is classed as functional, cell-based.
For series [15], the system named is MCF7. The series can be described thus: Cytotoxicity against human MCF7 cells assessed as reduction in cell viability incubated for 24 to 48 hrs in presence of cisplatin by CCK-8 assay. To be noted: time 24-48 hrs. It counts as functional, cell-based.
For series [16], the system named is MDA-MB-231. As to the kind of experiment: Cytotoxicity against human MDA-MB-231 cells assessed as reduction in cell viability incubated for 24 to 48 hrs in presence of cisplatin by CCK-8 assay. The series is classed as functional, cell-based. To be noted: time 24-48 hrs.
Series [17] concerns HepG2. As to the kind of experiment: Cytotoxicity against human HepG2 cells assessed as reduction in cell viability incubated for 24 to 48 hrs in presence of cisplatin by CCK-8 assay. It counts as functional, cell-based. To be noted: time 24-48 hrs.

Sequence of Sigma intracellular receptor 2 (Homo sapiens) (Q5BJF2 whole entry): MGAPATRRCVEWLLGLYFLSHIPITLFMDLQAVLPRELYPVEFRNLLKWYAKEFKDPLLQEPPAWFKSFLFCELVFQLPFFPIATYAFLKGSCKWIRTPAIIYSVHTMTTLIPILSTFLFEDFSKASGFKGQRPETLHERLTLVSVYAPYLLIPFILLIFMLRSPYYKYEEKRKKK
Sequence of Sigma non-opioid intracellular receptor 1 (Q60492 whole entry): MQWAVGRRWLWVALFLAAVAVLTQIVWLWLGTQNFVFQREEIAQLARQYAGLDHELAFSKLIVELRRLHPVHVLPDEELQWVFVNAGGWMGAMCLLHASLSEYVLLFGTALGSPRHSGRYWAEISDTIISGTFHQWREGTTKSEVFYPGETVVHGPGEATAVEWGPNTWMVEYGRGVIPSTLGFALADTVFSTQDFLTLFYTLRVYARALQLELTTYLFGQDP

For the compound `COc1cc2c(cc1OC)CN(CCCCCCC(=O)c1c(C)c(OC)c(OC)c(OC)c1OC)CC2`, the pIC50 in series [1] is 4.15; in [2], 4.27; in [6], 4.49; in series [7], 4.29. In addition, in series [3], the outcome was Active. Also, the pKi in series [4] was 8.88; in series [5] it was less than 6.00.
As to `COc1cc2c(c(OC)c1OC)CCN(CCCCC(=O)c1c(C)c(OC)c(OC)c(OC)c1OC)C2`, the Ratio Ki in [8] was greater than 29. For the same compound, the negative logarithm of the Ki (pKi) in series [4] was 7.47; in [5], less than 6.00.
Turning to `COc1cc2c(cc1OC)CN(CCCCNC(=O)c1cc(C)ccc1OC)CC2`, the result in series [3] was Active.
For `COc1cc2c(c(OC)c1OC)CCN(CCCCCC(=O)c1c(C)c(OC)c(OC)c(OC)c1OC)C2`, the Ratio Ki in series [8] was greater than 50. In addition, the pKi in [4] is 7.71; in [5], less than 6.00.
For the compound `COc1cc2c(c(OC)c1OC)CN(CCCCCCC(=O)c1c(C)c(OC)c(OC)c(OC)c1OC)CC2`, the IC50 result in series [1] (mcf7) and in [2] (mcf-10a) was “Not Active” throughout. The pKi in series [4] and in series [5] was less than 6.00 each time. Besides, the negative logarithm of the IC50 (pIC50) was 4.63 in [6] and 4.40 in series [7].
For `COc1cc2c(c(OC)c1OC)CCN(CCCCCCC(=O)c1c(C)c(OC)c(OC)c(OC)c1OC)C2`, the Ratio Ki in series [8] was greater than 24. Also, the pKi was 7.40 in series [4] and less than 6.00 in series [5].
For `COc1cc2c(c(OC)c1OC)CN(CCCC(=O)c1c(C)c(OC)c(OC)c(OC)c1OC)CC2`, the pKi in [4] and in series [5] was less than 6.00 each time.
Take `COc1cc2c(c(OC)c1OC)CCN(CCC(=O)c1c(C)c(OC)c(OC)c(OC)c1OC)C2`: the pKi was 4.94 in series [4] and less than 6.00 in series [5].
Turning to `Fc1ccc(-n2cc(CCCCN3CCC4(CC3)OCc3ccccc34)c3ccccc32)cc1`, the outcome in [9] was Active.
For the compound `COc1cc2c(cc1OC)CN(CCCCCC(=O)c1c(C)c(OC)c(OC)c(OC)c1OC)CC2`, the pIC50 in [10] and in series [13] was less than 4.00 throughout. Further, in series [11], the result was inactive. In addition, the Activity entry in [12] is “Non-Toxic”. In addition, in [3], the outcome was Active. Besides, the negative-log Ki (pKi) in [4] is 9.42; in series [5] it was less than 6.00.
For `COc1cc2c(c(OC)c1OC)CN(CCCCC(=O)c1c(C)c(OC)c(OC)c(OC)c1OC)CC2`, the Ratio Ki in series [8] is greater than 44. Besides, the pKi in series [4] is 7.65; in series [5], less than 6.00.
With `COc1cc2c(cc1OC)CN(CCCCC(=O)c1c(C)c(OC)c(OC)c(OC)c1OC)CC2`, the pIC50 in [10] and in series [13] was less than 4.00 each time. The outcome in [11] was inactive. Further, the Activity entry in [12] is given as “Non-Toxic”. The outcome in series [3] was Active. Further, the figures for the pKi in series [4] and in series [5] were 8.52 and 6.80, respectively.
`COc1cc2c(cc1OC)CN(CCC(=O)c1c(C)c(OC)c(OC)c(OC)c1OC)CC2`: the result in series [14], in series [15], in series [16] and in series [17] was Active. Further, the pIC50 in [1] was 4.94; in [2], 4.92; in series [6] it was 5.01; in series [7] it was 5.09. Further, the pKi in series [4] was 6.02; in series [5], 5.50.
Take `COc1cc2c(c(OC)c1OC)CN(CCC(=O)c1c(C)c(OC)c(OC)c(OC)c1OC)CC2`: the pIC50 in series [1] was 4.59; in series [2], 4.34; in series [6] it was 4.56; in series [7], 4.71. Besides, the pKi in series [4] is 5.50; in series [5], less than 6.00.
As for `COc1cc2c(c(OC)c1OC)CN(CCCCCC(=O)c1c(C)c(OC)c(OC)c(OC)c1OC)CC2`, in series [8], the Ratio Ki is greater than 79. The pKi in series [4] was 7.90; in [5], less than 6.00.
On the same counts, the results for `COc1cc2c(c(OC)c1OC)CCN(CCCC(=O)c1c(C)c(OC)c(OC)c(OC)c1OC)C2` are greater than 24, 7.38 and less than 6.00.
Consider `COc1cc2c(cc1OC)CN(CCCC(=O)c1c(C)c(OC)c(OC)c(OC)c1OC)CC2`, for which the pIC50 in [10] and in series [13] was less than 4.00 in each case. Besides, the outcome in series [11] was inactive. In series [12], the Activity result is reported as “Non-Toxic”. Also, in [3], the result was Active. Also, the pKi in series [4] was 8.29; in series [5] it was less than 6.00.
